Assay results published in US20210038545A1 (priority 2018, published 2021).

Legend:
S. pneumoniae [1] = settings: mice colonized with IAV microbiota; 30 hrs after challenge; FIG. 4A
S. pneumoniae [2] = settings: IAV (H3N2)-infected mice as printed; acetate from day 2 p.i.; 1×10^3 CFUs at 7 dpi; 30 hrs later; FIG. 4B
S. pneumoniae [3] = settings: mouse, in vivo
[4] = test system: respiratory bacterial (including pneumococcal) and fungal infections; settings: Ciarlo et al., 2016; cited from earlier work

Structure (SMILES) | protective effect of acetate in Ffa2−/− mice (S. pneumoniae serotype 1; Ffa2−/− mice relative to FFA2-competent mice, FIG. 1B) | number of bacteria in the spleen (S. pneumoniae serotype 1; acetate 200 mM drinking water for five days before 1×10^6 CFUs i.n., 30 hours after challenge, FIG. 1A lower panel) | number of bacteria in the lungs (S. pneumoniae serotype 1; acetate 200 mM drinking water for five days before 1×10^6 CFUs i.n., 30 hours after challenge, vs vehicle, FIG. 1A upper panel) | number of pneumococci in lungs (S. pneumoniae [1]) | systemic dissemination of pneumococci out of the lungs (S. pneumoniae [1]) | bacterial load in the lung (S. pneumoniae [2]) | bacterial load in the spleen (S. pneumoniae [2]) | bacterial loads in the lung (S. pneumoniae [3]) | bacterial loads in the spleen (S. pneumoniae [3]) | survival rate of double-infected mice (S. pneumoniae [3]) | modulation of host defenses against respiratory bacterial and fungal infections [4]
CC(=O)O [acetate] | significantly reduced | lowered | significantly reduced | lower number | lowered | significant lower | significant lower | significantly reduced | significantly reduced | significant enhancement | –
CCC(=O)O [propionate] | – | – | – | – | – | – | – | – | – | – | failed to modulate
